# Literature values, collected in patent publication US20240299291A1, “OPHTHALMIC PREPARATION ADMINISTERED BY EYE DROPS AND USED FOR PREVENTING AND TREATING DRY MACULAR DEGENERATION AND RETINAL LIGHT DAMAGE” (CHENGDU RUIMU BIOPHARMACEUTICALS CO., LTD., priority 2021, published 2024).
# Experiments:
# retinal light damage = conditions: injection into the vitreous cavity of mice, up to 500 mg/kg/day, 7 days, before light damage
# [1] = test system: age-related macular degeneration (AMD); conditions: oral metformin
# [2] = test system: AMPK (adenosine mono-phosphate activated protein kinase); conditions: mice
compound,measurement,setting,value
CN(C)C(=N)N=C(N)N [metformin],Prevention of light damage,retinal light damage,almost completely prevent the light damage
same,Risk of AMD in patients with type 2 diabetes versus patients who did not take metformin,[1],significantly lower
same,AMPK activation in the retina of eyes,[2],locally activates AMPK
same,Reduction of the incidence of open-angle glaucoma versus patients who did not take metformin,AMD; open-angle glaucoma; high-dose group (>1110 g metformin for 2 years),25%
same,Effect on the occurrence or development of AMD,AMD; open-angle glaucoma; oral metformin,may have therapeutic effect on the occurrence or development of AMD
